Test results from ChEMBL document CHEMBL1201862, “PubChem BioAssay data set” (2004).
The source made the active and inactive calls.

Tests used:
[1] = molecular target: Dual specificity protein phosphatase 3 (Homo sapiens, UniProt P51452); assay: VHR phosphatase inhibition, dose response, selectivity assay for STEP inhibitor project, biochemical (AID 602374); format: functional; settings: read-out: IC50_Mean
[2] = molecular target: DNA dC->dU-editing enzyme APOBEC-3G (Homo sapiens, UniProt Q9HC16); assay: Dose Response confirmation of small molecule APOBEC3G DNA Deaminase Inhibitors via a fluorescence-based single-stranded DNA deaminase assay. [Related pubchem assays (depositor defined):AID493012, AID493028]; format: functional
[3] = molecular target: T1, Tyrosine-protein phosphatase non-receptor type 5 (Homo sapiens, UniProt P54829); assay: STEP phosphatase inhibitors, confirmation, biochemical, fluorescence intensity, uHTS hits (AID 602372); format: functional; settings: read-out: IC50_Mean
T1 sequence (P54829 whole entry): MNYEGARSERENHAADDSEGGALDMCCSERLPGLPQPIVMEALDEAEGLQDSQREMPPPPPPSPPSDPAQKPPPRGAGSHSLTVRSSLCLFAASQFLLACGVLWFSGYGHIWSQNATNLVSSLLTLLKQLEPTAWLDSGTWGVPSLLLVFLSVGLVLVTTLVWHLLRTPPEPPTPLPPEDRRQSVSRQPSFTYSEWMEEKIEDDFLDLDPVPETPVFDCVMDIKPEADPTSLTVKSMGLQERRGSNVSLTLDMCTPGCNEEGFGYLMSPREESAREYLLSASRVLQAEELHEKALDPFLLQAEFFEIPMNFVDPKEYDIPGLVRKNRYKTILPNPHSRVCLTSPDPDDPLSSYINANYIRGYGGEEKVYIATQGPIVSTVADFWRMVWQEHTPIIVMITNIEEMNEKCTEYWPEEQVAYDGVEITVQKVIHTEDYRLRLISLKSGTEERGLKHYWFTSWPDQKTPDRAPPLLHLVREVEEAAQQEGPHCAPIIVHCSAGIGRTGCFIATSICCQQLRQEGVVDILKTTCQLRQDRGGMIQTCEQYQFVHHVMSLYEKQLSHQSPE

[4] = molecular target: T2, Tyrosine-protein phosphatase non-receptor type 11 (Homo sapiens, UniProt Q06124); assay: SHP2 phosphatase inhibition, dose response, selectivity assay for STEP inhibitor project, biochemical (AID 602367); format: functional; settings: read-out: IC50_Mean
T2 sequence (Q06124 whole entry): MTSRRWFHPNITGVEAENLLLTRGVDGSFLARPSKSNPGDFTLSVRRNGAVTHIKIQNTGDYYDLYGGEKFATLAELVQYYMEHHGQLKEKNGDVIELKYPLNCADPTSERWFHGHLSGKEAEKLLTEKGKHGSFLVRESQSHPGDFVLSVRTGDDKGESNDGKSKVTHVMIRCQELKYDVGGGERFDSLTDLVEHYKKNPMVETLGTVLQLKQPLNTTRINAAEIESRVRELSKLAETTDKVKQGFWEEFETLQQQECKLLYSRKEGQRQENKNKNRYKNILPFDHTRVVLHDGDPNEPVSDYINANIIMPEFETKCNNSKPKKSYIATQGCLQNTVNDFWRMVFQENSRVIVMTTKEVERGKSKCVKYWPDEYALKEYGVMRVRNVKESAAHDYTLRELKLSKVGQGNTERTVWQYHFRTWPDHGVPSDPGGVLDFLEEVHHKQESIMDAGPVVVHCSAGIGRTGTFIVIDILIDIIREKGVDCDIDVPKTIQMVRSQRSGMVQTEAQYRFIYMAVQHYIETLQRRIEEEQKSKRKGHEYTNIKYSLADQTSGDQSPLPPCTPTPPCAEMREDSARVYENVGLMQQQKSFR

[5] = molecular target: DNA dC->dU-editing enzyme APOBEC-3A (Homo sapiens, UniProt P31941); assay: APOBEC3A DNA deaminase inhibitors, dose response, biochemical (AID 504722); format: functional
[6] = molecular target: T3, Tyrosine-protein phosphatase non-receptor type 22 (Homo sapiens, UniProt Q9Y2R2); assay: PTPN22 phosphatase inhibition, dose response, selectivity assay for STEP inhibitor project, biochemical (AID 624241); format: functional
T3 sequence (Q9Y2R2 whole entry): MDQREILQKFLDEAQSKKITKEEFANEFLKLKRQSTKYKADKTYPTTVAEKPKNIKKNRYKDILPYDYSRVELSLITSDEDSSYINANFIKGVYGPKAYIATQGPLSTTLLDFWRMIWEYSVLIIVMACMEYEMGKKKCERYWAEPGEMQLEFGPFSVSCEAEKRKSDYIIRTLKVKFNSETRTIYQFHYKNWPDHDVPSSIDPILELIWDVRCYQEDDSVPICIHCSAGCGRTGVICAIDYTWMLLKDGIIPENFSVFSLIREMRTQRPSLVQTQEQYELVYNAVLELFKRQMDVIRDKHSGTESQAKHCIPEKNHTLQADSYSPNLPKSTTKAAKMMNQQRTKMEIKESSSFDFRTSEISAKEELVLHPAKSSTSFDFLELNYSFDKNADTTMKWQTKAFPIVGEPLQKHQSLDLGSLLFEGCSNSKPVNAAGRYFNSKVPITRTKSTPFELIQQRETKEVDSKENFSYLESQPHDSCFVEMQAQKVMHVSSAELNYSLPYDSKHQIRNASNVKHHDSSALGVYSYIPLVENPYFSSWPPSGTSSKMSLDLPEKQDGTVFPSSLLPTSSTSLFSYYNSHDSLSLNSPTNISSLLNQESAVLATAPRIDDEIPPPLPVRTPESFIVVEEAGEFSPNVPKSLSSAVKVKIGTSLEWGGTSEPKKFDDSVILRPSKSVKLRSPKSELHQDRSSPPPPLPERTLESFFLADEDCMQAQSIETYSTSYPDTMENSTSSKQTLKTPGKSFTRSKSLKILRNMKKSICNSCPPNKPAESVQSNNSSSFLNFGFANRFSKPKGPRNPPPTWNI

Beta-lactamase [7] = molecular target: Beta-lactamase (Salmonella choleraesuis (strain SC-B67), UniProt Q5J463)
HEK293 [8] = assay: HEK cell cytotoxicity by LDH release, dose response, cytotoxicity control for IDE activator project, fluorescence, HEK cells (AID 588440); format: functional, cell-based; settings: Homo sapiens;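 also: cytotoxicity by LDH release measuring loss of membrane integrity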
Insulin-degrading enzyme [9] = molecular target: T4, Insulin-degrading enzyme (Homo sapiens, UniProt P14735); assay: activators of recombinant IDE enzyme, dose response, counter-screen for IDE activator project, biochemical, fluorescence polarization (AID 588681)
T4 sequence (P14735 whole entry): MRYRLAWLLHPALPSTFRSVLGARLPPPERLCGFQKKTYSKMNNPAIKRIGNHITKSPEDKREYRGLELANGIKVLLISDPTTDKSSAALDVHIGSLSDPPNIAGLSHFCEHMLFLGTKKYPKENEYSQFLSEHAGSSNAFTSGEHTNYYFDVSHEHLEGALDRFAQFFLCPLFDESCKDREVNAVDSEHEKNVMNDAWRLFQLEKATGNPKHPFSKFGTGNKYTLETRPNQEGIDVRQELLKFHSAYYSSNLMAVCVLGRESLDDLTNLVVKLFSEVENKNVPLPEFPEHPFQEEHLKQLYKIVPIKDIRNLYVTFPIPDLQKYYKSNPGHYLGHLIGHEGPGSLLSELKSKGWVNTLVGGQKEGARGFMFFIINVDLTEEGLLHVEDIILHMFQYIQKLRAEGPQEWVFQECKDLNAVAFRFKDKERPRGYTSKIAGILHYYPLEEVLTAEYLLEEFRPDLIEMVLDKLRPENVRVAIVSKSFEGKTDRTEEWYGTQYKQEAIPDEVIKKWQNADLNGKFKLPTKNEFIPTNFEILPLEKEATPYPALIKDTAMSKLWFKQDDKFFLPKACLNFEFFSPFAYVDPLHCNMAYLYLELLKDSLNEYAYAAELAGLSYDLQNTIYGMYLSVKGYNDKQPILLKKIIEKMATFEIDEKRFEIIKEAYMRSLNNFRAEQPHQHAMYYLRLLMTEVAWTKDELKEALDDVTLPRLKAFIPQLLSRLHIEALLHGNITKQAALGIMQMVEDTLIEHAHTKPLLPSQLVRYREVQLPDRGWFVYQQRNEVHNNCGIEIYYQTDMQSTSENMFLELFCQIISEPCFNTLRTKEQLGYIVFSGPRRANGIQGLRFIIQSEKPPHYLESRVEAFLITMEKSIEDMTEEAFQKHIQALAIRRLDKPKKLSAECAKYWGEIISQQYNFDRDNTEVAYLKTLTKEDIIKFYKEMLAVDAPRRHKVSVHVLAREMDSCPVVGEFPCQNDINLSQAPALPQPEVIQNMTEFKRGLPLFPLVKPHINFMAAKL

Keap1/Nrf2 = Keap1/Nrf2 (Homo sapiens, UniProt Q14145); assay: Keap1-Nrf2 protein-protein interaction inhibitors, dose response, biochemical, fluorescence polarization, cherry-picked samples (AID 588683)
ORF 73 = ORF 73 (Human herpesvirus 8, UniProt O40947); assay: inhibitors of C-LANA binding to LBS DNA, dose response, biochemical, fluorescence polarization, cherry-picked samples (AID 504725); parameters: species or system Human gammaherpesvirus 8;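 also: fluorescence polarization of a labeled DNA duplex reporting LANA DNA binding; potency is for inhibitors that block LANA binding to the DNA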
[10] = molecular target: T5, Voltage-gated N-type calcium channel alpha-1B subunit/Amyloid beta A4 precursor protein-binding family A member 1 (Homo sapiens, UniProt Q00975+Q02410); format: protein assay
[11] = molecular target: T5, Voltage-gated N-type calcium channel alpha-1B subunit/Amyloid beta A4 precursor protein-binding family A member 1; format: protein assay; remark: listed apart in the source
HEK293 [12] = assay: optical interference in Abeta FP readout, dose response, artefact control for IDE activator project, biochemical, fluorescence polarization (AID 588442); format: functional, cell-based; settings: Homo sapiens
Insulin-degrading enzyme [13] = molecular target: T4, Insulin-degrading enzyme; assay: activators of endogenous IDE in HEK cells, dose response, cell-based, fluorescence polarization (AID 588439); format: functional
Beta-lactamase [14] = molecular target: Beta-lactamase (Pseudomonas aeruginosa, UniProt Q79MP6);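 also: biochemical dose-response test of metallo-beta-lactamase enzyme inhibition, read out by epi-absorbance; purified recombinant IMP-1 metallo-beta-lactamase with nitrocefin as substrate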
Beta-lactamase (Pseudomonas aeruginosa, UniProt Q79MP6), sequence (Q79MP6 whole entry): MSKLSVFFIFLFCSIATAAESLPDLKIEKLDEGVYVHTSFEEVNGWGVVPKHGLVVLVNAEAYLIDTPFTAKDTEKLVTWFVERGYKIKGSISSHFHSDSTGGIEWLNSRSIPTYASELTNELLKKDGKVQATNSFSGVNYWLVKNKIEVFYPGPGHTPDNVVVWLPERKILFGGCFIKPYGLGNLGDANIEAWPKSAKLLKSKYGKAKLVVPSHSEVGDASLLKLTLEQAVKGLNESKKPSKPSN

T5 sequence (Q00975 whole entry): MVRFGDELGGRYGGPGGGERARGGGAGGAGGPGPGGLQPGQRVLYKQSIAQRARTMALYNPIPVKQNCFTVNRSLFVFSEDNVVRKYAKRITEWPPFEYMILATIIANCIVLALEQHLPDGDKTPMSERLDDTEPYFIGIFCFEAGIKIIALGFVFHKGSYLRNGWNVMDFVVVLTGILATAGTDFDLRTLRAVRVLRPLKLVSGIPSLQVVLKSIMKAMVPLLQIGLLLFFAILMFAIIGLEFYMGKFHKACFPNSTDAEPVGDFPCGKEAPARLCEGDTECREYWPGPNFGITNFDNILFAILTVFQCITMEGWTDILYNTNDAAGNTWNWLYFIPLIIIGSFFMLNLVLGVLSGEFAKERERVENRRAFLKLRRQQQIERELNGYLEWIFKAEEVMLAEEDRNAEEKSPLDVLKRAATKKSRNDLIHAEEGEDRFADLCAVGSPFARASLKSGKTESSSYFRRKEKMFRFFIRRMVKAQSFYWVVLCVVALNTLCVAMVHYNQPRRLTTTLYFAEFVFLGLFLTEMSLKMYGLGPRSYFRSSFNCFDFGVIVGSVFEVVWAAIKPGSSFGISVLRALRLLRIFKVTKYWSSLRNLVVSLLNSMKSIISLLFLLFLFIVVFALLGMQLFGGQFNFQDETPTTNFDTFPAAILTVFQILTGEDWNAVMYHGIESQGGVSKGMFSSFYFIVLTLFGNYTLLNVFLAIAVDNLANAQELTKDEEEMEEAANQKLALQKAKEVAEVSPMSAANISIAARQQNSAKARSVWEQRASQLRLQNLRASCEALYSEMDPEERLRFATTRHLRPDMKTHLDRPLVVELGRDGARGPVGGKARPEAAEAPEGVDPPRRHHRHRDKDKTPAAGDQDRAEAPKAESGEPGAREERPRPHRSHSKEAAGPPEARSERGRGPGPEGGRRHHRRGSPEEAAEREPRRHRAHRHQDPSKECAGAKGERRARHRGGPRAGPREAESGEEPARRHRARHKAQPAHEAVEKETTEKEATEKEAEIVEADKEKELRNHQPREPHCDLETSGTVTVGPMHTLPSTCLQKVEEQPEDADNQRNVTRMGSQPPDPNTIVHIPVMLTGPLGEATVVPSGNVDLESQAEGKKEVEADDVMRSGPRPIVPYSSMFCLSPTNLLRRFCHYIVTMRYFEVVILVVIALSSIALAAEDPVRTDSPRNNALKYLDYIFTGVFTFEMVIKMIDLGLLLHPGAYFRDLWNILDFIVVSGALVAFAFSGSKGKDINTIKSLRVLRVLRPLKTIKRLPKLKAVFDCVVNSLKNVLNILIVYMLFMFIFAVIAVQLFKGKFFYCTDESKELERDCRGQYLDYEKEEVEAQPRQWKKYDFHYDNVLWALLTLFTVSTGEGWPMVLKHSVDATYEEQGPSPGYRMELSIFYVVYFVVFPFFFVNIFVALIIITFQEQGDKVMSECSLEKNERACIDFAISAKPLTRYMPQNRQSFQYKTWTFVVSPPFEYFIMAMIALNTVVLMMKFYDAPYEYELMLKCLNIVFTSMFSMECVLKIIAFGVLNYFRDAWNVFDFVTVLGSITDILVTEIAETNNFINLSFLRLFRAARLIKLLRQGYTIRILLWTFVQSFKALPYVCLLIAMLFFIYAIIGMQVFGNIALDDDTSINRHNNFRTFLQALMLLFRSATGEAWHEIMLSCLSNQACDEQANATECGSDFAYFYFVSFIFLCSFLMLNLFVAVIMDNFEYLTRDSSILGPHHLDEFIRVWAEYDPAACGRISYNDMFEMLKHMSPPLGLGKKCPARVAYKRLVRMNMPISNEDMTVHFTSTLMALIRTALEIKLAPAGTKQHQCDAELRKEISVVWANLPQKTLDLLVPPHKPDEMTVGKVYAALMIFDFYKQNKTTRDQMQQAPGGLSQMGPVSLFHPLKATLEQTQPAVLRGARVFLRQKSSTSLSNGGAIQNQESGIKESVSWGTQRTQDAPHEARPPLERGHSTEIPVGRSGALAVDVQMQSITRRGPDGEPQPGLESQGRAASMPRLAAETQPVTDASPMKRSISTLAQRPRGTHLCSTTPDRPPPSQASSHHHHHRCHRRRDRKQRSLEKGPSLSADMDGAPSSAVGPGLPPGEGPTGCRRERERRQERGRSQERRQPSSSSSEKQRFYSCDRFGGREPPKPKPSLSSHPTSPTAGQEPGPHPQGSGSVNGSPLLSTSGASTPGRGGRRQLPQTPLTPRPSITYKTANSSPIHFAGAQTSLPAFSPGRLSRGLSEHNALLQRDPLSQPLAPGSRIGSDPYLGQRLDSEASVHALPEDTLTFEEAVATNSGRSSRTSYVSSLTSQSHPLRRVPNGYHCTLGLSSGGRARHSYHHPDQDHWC
T5 sequence (Q02410 whole entry): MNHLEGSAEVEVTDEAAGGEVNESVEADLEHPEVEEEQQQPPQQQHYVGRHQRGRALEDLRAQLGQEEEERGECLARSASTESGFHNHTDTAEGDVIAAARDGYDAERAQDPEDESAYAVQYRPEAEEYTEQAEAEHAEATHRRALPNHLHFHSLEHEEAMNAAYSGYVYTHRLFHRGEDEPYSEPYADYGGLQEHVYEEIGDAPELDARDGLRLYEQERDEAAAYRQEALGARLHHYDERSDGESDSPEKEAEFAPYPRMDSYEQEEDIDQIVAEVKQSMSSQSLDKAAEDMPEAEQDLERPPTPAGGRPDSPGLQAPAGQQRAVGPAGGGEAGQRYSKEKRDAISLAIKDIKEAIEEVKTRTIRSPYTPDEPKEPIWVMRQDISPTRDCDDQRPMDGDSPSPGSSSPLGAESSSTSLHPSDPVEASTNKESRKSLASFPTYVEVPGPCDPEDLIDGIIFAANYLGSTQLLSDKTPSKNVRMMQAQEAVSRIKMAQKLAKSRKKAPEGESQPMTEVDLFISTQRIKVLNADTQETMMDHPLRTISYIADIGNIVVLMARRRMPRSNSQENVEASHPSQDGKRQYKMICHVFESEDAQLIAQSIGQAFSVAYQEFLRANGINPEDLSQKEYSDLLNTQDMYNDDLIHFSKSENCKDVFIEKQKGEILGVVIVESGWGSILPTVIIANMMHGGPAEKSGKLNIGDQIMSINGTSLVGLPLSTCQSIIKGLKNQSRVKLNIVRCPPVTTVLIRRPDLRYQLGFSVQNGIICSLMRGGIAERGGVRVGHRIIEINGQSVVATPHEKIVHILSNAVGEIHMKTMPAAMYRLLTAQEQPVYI
Dual specificity protein phosphatase 3, sequence (P51452 whole entry): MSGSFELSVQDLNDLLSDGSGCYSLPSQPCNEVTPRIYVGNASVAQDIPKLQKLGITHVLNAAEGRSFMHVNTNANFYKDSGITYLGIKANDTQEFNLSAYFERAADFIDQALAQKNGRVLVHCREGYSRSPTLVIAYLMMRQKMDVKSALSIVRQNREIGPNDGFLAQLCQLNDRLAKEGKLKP
Beta-lactamase (Salmonella choleraesuis (strain SC-B67), UniProt Q5J463), sequence (Q5J463 whole entry): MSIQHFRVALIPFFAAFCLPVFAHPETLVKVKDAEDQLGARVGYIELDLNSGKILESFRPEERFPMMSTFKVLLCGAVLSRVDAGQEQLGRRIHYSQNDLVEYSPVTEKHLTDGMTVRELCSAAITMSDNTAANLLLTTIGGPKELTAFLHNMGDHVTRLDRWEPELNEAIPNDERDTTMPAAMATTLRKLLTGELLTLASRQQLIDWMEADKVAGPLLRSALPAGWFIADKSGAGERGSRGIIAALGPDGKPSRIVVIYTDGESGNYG
DNA dC->dU-editing enzyme APOBEC-3G, sequence (Q9HC16 whole entry): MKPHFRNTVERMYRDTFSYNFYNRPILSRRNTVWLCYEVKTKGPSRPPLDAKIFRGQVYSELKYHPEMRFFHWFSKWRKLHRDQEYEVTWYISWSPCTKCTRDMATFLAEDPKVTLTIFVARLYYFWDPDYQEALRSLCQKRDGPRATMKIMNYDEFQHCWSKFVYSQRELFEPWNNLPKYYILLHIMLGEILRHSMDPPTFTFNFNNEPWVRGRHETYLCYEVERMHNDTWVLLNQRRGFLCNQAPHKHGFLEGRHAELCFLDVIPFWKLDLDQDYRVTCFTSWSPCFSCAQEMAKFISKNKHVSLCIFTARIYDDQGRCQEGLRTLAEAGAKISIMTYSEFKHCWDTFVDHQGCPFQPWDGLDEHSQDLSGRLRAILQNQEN
DNA dC->dU-editing enzyme APOBEC-3A, sequence (P31941 whole entry): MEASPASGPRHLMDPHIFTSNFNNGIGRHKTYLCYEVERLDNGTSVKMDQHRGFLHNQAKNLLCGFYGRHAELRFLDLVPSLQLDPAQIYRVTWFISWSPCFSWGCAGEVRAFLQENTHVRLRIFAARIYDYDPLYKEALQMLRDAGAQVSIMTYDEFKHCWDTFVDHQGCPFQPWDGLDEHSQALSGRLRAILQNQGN

CCN1CCN(C(=S)c2ccc(Cl)cc2)CC1
IC50 [1]: 341 nM (active) | IC50 [2]: 5.06 µM (active) | IC50 [3]: 8.91 µM (active) | IC50 [4]: 318 nM (active) | IC50 [5]: > 100 µM (inactive) | IC50 [6]: 12.8 µM (active)

O=C1c2cccc3c(O)ccc(c23)C(=O)N1Cc1ccco1
IC50 (Beta-lactamase [7]): 7.5 µM (active) | IC50 (HEK293 [8]): > 89.3 µM (inactive) | EC50 (Insulin-degrading enzyme [9]): > 54.7 µM (inactive) | AC50 (Keap1/Nrf2): 1.5 µM (active) | AC50 (ORF 73): 966 nM (active) | IC50 [10]: > 50 µM (inactive) | IC50 [11]: 9.17 µM (active) | EC50 (HEK293 [12]): > 54.7 µM (inactive) | EC50 (Insulin-degrading enzyme [13]): > 54.7 µM (inactive) | IC50 (Beta-lactamase [14]): 14.1 µM (inactive)
